For 1 compound, IC50 results are on record in publication doi:10.1101/2025.03.30.646166v1 (biorxiv, 2025).

This experiment concerns the target T1, human USP18 residues 52-372 (recombinant) (Homo sapiens, UniProt Q9UMW8).
T1 sequence (Q9UMW8 52-372): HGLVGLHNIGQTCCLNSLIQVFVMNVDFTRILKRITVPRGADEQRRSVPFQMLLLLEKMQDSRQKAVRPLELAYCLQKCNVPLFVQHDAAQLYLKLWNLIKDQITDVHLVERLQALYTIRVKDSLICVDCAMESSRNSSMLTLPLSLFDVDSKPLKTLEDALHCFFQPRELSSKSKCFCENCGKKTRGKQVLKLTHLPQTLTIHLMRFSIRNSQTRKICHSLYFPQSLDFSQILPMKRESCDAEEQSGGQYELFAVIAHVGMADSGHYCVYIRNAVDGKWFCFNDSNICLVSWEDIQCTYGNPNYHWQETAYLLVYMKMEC
As to the kind of experiment: fluorogenic ISG15ct-rhodamine cleavage, dose-response. Type of experiment: biochemical.

Usually IC50 stands for the midpoint of a concentration-inhibition curve. As to `Cc1ccc2[nH]c3c(c2c1)CN(C(=O)c1cc(-c2ccccc2)[nH]n1)CC3` [compound 8655, ZHAWOC8655], the IC50 was found to be 14.1 ± 1.6 µM.
